In ChEMBL document CHEMBL4419173, “Small-molecule inhibitors targeting g-protein-coupled rho guanine nucleotide exchange factors” (2014):
Each block holds one compound with its values, some of them ahead of it. Active and inactive are the calls of the source. The calls are words filed in the database; no cut-off is given here.

What was measured:
[1] = target: T1, Rho guanine nucleotide exchange factor 12 (Homo sapiens, UniProt Q9NZN5); test: Inhibition of human LARG (765 to 1138 residues) RhoGEF-catalyzed guanine nucleotide-exchange reaction of human full length RhoA (1 to 193 residues) by measuring inhibition of TR-GTP association to RhoA by BODIPY-Texas Red(TR)-GTP nucleotide based assay
[2] = target: T1, Rho guanine nucleotide exchange factor 12; test: Inhibition of human LARG (765 to 1138 residues) RhoGEF-catalyzed guanine nucleotide-exchange reaction of human full length RhoA (1 to 193 residues) by measuring inhibition of FL-GDP dissociation from RhoA by BODIPY-fluorescein(FL)-GDP nucleotide based assay
[3] = target: T2, RhoGEF 1/Transforming protein RhoA (Homo sapiens) (UniProt P61586+Q92888); test: Binding affinity to human LARG (765 to 1138 residues) DH-PH module expressed in mouse NIH/3T3 cells assessed as reduction in LARG binding to human full length RhoA (1 to 193 residues) by measuring relative LARG binding level at 5 uM pull-down assay (reference value: 1 No unit); assay type: cell-based
MCF7 [4] = test: Growth inhibition of human MCF7 cells at 5 to 50 uM; assay type: functional, cell-based
Mus musculus [5] = organism: Mus musculus; test: Inhibition of RhoGEF in mouse NIH/3T3 cells assessed as inhibition of 10% calf serum-induced RhoA-GTP formation by measuring relative RhoA-GTP level at 10 uM incubated for 24 hrs by densitometry (reference value: 1); assay type: cell-based
Mus musculus [6] = organism: Mus musculus; test: Inhibition of RhoGEF in mouse NIH/3T3 cells assessed as reduction in 10% calf serum-induced rhoA-mediated actin stress fiber formation at 10 uM by rhodamine-phalloidin staining based assay; assay type: cell-based
Mus musculus [7] = organism: Mus musculus; test: Inhibition of RhoGEF in mouse NIH/3T3 cells assessed as inhibition of 10% calf serum-induced Cdc42-GTP formation by measuring relative Cdc42-GTP level at 50 uM incubated for 24 hrs by densitometry (reference value: 1); assay type: cell-based
MCF7 [8] = test: Inhibition of RhoGEF in human MCF7 cells derived mammospheres assessed as inhibition of 10% calf serum-induced RhoA-GTP formation by measuring relative RhoA-GTP level at 30 uM incubated for 24 hrs by densitometry (reference value: 1); assay type: cell-based
[9] = target: T2, RhoGEF 1/Transforming protein RhoA (Homo sapiens); test: Binding affinity to human LARG (765 to 1138 residues) DH-PH module expressed in mouse NIH/3T3 cells assessed as reduction in LARG binding to human full length RhoA (1 to 193 residues) by measuring relative LARG binding level at 30 uM pull-down assay (reference value: 1 No unit); assay type: cell-based
MCF7 [10] = test: Inhibition of cell invasion of human MCF7 cells at 10 to 50 uM by Matrigel-coated transwell based assay; assay type: functional
MCF7 [11] = test: Inhibition of cell migration of human MCF7 cells at 10 to 50 uM; assay type: functional, cell-based
[12] = target: T2, RhoGEF 1/Transforming protein RhoA (Homo sapiens); test: Binding affinity to human LARG (765 to 1138 residues) DH-PH module expressed in mouse NIH/3T3 cells assessed as reduction in LARG binding to human full length RhoA (1 to 193 residues) by measuring relative LARG binding level at 50 uM pull-down assay (reference value: 1 No unit); assay type: cell-based
MCF7 [13] = test: Inhibition of RhoGEF in human MCF7 cells derived mammospheres assessed as inhibition of 10% calf serum-induced RhoA-GTP formation by measuring relative RhoA-GTP level at 5 uM incubated for 24 hrs by densitometry (reference value: 1); assay type: cell-based
[14] = target: T1, Rho guanine nucleotide exchange factor 12; test: Inhibition of human LARG (765 to 1138 residues) RhoGEF binding to human full length RhoA (1 to 193 residues)
MCF7 [15] = test: Inhibition of RhoGEF in human MCF7 cells derived mammospheres assessed as inhibition of RhoA-mediated phospho-MLC formation at 10 uM incubated for 24 hrs by densitometry; assay type: cell-based
MCF7 [16] = test: Inhibition of RhoGEF in human MCF7 cells derived mammospheres assessed as inhibition of 10% calf serum-induced RhoA-GTP formation at 10 uM incubated for 24 hrs by densitometry relative to control; assay type: cell-based
MCF7 [17] = test: Inhibition of RhoGEF in human MCF7 cells derived mammospheres assessed as inhibition of 10% calf serum-induced RhoA-GTP formation by measuring relative RhoA-GTP level incubated for 24 hrs by densitometry (reference value: 1); assay type: cell-based
Mus musculus [18] = organism: Mus musculus; test: Inhibition of RhoGEF in mouse NIH/3T3 cells assessed as inhibition of 10% calf serum-induced Rac1-GTP formation by measuring relative Rac1-GTP level at 50 uM incubated for 24 hrs by densitometry (reference value: 1); assay type: cell-based
MCF7 [19] = test: Inhibition of RhoGEF in human MCF7 cells derived mammospheres assessed as inhibition of 10% calf serum-induced RhoA-GTP formation by measuring relative RhoA-GTP level at 10 uM incubated for 24 hrs by densitometry (reference value: 1); assay type: cell-based
Mus musculus [20] = organism: Mus musculus; test: Inhibition of RhoGEF in mouse NIH/3T3 cells assessed as inhibition of 10% calf serum-induced RhoA-GTP formation by measuring relative RhoA-GTP level at 50 uM incubated for 24 hrs by densitometry (reference value: 1); assay type: cell-based
Mus musculus [21] = organism: Mus musculus; test: Inhibition of RhoGEF in mouse NIH/3T3 cells assessed as inhibition of 10% calf serum-induced RhoA-GTP formation by measuring reduction in RhoA-GTP level at 30 uM incubated for 24 hrs by densitometry relative to control; assay type: cell-based
[22] = target: T2, RhoGEF 1/Transforming protein RhoA (Homo sapiens); test: Binding affinity to human LARG (765 to 1138 residues) DH-PH module expressed in mouse NIH/3T3 cells assessed as reduction in LARG binding to human full length RhoA (1 to 193 residues) by measuring relative LARG binding level at 10 uM pull-down assay (reference value: 1 No unit); assay type: cell-based
Mus musculus [23] = organism: Mus musculus; test: Inhibition of RhoGEF in mouse NIH/3T3 cells assessed as inhibition of 10% calf serum-induced RhoA-GTP formation by measuring relative RhoA-GTP level at 30 uM incubated for 24 hrs by densitometry (reference value: 1); assay type: cell-based
MCF7 [24] = test: Inhibition of RhoGEF in human MCF7 cells derived mammospheres assessed as inhibition of RhoA-mediated phospho-MLC formation incubated for 24 hrs by densitometry; assay type: cell-based
[25] = target: Rho GEF 12/Transforming protein RhoA (Homo sapiens) (UniProt P61586+Q9NZN5); test: Inhibition of His6-tagged human LARG PH-DH domain expressed in mouse NIH/3T3 cells assessed as reduction in human full length GST-tagged RhoA (1 to 193 residues) interaction with LARG RhoGEF at 100 uM incubated for 1 hr by Western blot analysis relative to Y16; assay type: cell-based

T1 sequence (Q9NZN5 whole entry, the tested form may be a part): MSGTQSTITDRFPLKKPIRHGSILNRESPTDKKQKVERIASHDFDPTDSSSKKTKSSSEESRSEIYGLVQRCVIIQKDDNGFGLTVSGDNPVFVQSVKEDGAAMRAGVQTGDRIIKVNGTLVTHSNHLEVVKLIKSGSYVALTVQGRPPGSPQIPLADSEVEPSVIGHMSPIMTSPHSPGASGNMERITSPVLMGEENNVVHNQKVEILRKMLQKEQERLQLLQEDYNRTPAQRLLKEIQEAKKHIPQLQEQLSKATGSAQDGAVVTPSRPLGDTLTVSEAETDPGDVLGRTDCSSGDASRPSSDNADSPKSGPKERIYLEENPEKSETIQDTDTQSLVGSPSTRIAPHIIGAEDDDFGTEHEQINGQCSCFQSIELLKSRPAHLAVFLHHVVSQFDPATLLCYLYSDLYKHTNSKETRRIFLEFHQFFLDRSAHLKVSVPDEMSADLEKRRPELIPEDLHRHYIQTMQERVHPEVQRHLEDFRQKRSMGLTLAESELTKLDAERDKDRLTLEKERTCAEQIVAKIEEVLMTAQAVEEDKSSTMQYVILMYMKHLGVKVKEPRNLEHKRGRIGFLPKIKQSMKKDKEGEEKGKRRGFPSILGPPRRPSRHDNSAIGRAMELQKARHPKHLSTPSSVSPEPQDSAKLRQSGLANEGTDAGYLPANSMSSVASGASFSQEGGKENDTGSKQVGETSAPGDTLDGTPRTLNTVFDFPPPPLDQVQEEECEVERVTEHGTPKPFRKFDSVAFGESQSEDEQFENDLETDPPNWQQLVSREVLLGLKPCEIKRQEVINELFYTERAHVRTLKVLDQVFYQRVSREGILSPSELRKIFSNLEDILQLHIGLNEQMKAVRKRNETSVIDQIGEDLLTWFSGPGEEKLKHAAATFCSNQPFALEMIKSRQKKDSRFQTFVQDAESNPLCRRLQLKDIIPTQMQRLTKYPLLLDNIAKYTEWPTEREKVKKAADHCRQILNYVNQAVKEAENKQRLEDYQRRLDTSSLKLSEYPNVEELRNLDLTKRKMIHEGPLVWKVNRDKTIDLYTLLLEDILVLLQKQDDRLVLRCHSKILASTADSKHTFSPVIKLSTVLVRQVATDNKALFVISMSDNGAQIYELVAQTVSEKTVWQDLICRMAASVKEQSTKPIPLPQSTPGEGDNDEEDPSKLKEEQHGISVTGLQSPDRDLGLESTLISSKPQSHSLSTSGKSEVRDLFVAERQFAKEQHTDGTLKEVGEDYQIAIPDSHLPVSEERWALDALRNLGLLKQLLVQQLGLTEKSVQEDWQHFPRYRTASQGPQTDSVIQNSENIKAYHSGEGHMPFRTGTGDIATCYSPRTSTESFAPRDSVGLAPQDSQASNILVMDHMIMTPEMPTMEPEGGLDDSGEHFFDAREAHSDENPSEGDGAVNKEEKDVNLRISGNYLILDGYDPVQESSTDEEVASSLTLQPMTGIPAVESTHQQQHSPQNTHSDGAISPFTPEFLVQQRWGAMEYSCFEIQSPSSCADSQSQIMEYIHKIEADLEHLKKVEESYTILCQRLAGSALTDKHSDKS

inhibition [1]: Dose-dependent effect
inhibition [2]: Dose-dependent effect
SMILES: O=C(O)C1Nc2c(Cl)cc(Cl)cc2C2C=CCC12 (centres undefined)

fold change (FC) [3]: 0.92
fold change (FC) [9]: 0.45
fold change (FC) [12]: 0.15
IC50 [14]: 10 µM
fold change (FC) [22]: 0.63
SMILES: N[C@H](Cc1c[nH]c2ccccc12)C(=O)N/N=C/c1ccc2nccnc2c1
growth inhibition (GI) (MCF7 [4]): Active
fold change (FC) (Mus musculus [5]): 0.7
inhibition (Mus musculus [6]): Active
fold change (FC) (Mus musculus [7]): 0.96
fold change (FC) (MCF7 [8]): 0.32
inhibition (MCF7 [10]): Active
inhibition (MCF7 [11]): Active
fold change (FC) (MCF7 [13]): 0.98
inhibition (MCF7 [15]): 50%
inhibition (MCF7 [16]): 50%
inhibition (MCF7 [17]): Dose-dependent effect
fold change (FC) (Mus musculus [18]): 0.89
fold change (FC) (MCF7 [19]): 0.65
fold change (FC) (Mus musculus [20]): 0.19
inhibition (Mus musculus [21]): 80%
fold change (FC) (Mus musculus [23]): 0.38
inhibition (MCF7 [24]): Dose-dependent effect

inhibition [25]: 13.8%
SMILES: COc1cc(/C=C2/C(=O)NN(c3ccccc3)C2=O)cc(Br)c1OCCOc1ccc(C)cc1

inhibition [25]: 7.34%
SMILES: O=C1/C(=C\c2ccccc2OCc2ccccc2)CNN1c1ccc(Br)cc1

inhibition [25]: 27.1%
SMILES: O=C1NN(c2ccccc2)C(=O)/C1=C/c1ccc(OCc2ccccc2)cc1

inhibition [25]: 13%
SMILES: COc1cc(/C=C2/C(=O)NN(c3ccccc3)C2=O)ccc1O

inhibition [25]: 6.57%
SMILES: O=C1NN(c2ccccc2)C(=O)/C1=C\C1=NCc2ccccc21
